Laboratory results taken from patent publication US20030203388A1, “Method for determining genotoxicity” (Pfizer Inc., priority 2002, published 2003).

What was measured:
[1] = test system: GADD45β (X54149), GADD45 (U00937), AV138783, AI847051, AF055638, AI461837; assay: gene expression analysis (Affymetrix mouse microarray chip U74); format: cell-based; conditions: L5178Y cells treated four hours
Method: Mouse lymphoma cell line L5178Y (ATCC No. CRL 9518, ATCC) were cultivated in RPMI medium (Invitrogen Life Technologies, Inc., Carlsbad, Calif.) supplemented with 10% fetal bovine serum and antibiotics penicillin and streptomycin at 37° C. Cells from exponentially growing cultures were seeded at a concentration 3×10^5 cells/ml and incubated for 24 hours and maintained below 1×10^6 cells/ml. […] After the treatment, the cells were washed in PBS (Invitrogen Life Technologies, Inc., Carlsbad, Calif.). Half of the cells where then immediately frozen and stored at −80° C. prior to gene expression analysis, as described in Example 2 below. The other half was allowed to recover in a fresh growth medium for 20 hours. Cell viability was determined based on a cell count. Cell viability results appear in FIG. 1 and FIG. 2 as a ratio between treated versus vehicle control. […]
Gene expression was measured using Affymetrix GeneChip® technology (Affymetrix, Inc., Santa Clara, Calif.) using standard protocols available from Affymetrix (see, GeneChip® Expression Analysis, Technical Manual, Rev. 2 (2001), Affymetrix, Inc., available at http://www.affymetrix.com/pdf/expression_manual.pdf). […] The hybridized chips were scanned using a Hewlett Packard GeneArray™ Scanner, (Hewlett Packard Company, Palo Alto, Calif.) and the resulting data were evaluated using Affymetrix Microarray suite software (Affymetrix). […]

L5178Y cells = assay: in vitro micronucleus assay; format: cell-based, mouse; conditions: L5178Y cells treated four hours, 20 hours recovery; sodium chloride at high concentrations
Method: Mouse lymphoma cell line L5178Y (ATCC No. CRL 9518, ATCC) were cultivated in RPMI medium (Invitrogen Life Technologies, Inc., Carlsbad, Calif.) supplemented with 10% fetal bovine serum and antibiotics penicillin and streptomycin at 37° C. Cells from exponentially growing cultures were seeded at a concentration 3×10^5 cells/ml and incubated for 24 hours and maintained below 1×10^6 cells/ml. […] After the treatment, the cells were washed in PBS (Invitrogen Life Technologies, Inc., Carlsbad, Calif.). […] The other half was allowed to recover in a fresh growth medium for 20 hours. Cell viability was determined based on a cell count. […] The cells were then harvested for use in the in vitro micronucleus assay of Example 3 below.
Treated cells prepared according to Example 1 were attached to glass slides by dropping them onto the glass slides using a pipette after hypotonic treatment with 75 mM KCl (Sigma-Aldrich Corp., St Louis, Mo.) and fixation with 3:1 (v/v) MeOH:acetic acid (JT Baker, Inc., Phillipsburg, N.J.). The cells were then stained using 31.25 μg/ml solution of acridine orange (Molecular Probes, Inc., Eugene, Oreg.).
Micronuclei were counted using a Axiokop 2 fluorescent microscopy (Carl Zeiss Microlmaging, Inc., Thornwood, N.Y.).

SMILES | expression of GADD45β (X54149) and GADD45 (U00937) [1] | genotoxic stress, as demonstrated using a micronucleus assay (L5178Y cells) | level of expression of these genes (GADD45β, GADD45, AV138783, AI847051, AF055638, AI461837) [1]
N.N.[Cl][Pt][Cl] [cisplatin] | increased expression | – | –
[Cl-].[Na+] [sodium chloride] | – | show evidence of genotoxic stress | no effect
